The text below walks through data of ChEMBL document CHEMBL1146669, “The development of potent non-peptidic PTP-1B inhibitors” (Bioorg Med Chem Lett, 2004).

Several values for one entry are separate records, joined by “and”; a condition that tells them apart may be missing. Identical values can stand only once.

Data set [1] addresses T1, Receptor-type tyrosine-protein phosphatase C (Homo sapiens, UniProt P08575).
T1 sequence (P08575 whole entry): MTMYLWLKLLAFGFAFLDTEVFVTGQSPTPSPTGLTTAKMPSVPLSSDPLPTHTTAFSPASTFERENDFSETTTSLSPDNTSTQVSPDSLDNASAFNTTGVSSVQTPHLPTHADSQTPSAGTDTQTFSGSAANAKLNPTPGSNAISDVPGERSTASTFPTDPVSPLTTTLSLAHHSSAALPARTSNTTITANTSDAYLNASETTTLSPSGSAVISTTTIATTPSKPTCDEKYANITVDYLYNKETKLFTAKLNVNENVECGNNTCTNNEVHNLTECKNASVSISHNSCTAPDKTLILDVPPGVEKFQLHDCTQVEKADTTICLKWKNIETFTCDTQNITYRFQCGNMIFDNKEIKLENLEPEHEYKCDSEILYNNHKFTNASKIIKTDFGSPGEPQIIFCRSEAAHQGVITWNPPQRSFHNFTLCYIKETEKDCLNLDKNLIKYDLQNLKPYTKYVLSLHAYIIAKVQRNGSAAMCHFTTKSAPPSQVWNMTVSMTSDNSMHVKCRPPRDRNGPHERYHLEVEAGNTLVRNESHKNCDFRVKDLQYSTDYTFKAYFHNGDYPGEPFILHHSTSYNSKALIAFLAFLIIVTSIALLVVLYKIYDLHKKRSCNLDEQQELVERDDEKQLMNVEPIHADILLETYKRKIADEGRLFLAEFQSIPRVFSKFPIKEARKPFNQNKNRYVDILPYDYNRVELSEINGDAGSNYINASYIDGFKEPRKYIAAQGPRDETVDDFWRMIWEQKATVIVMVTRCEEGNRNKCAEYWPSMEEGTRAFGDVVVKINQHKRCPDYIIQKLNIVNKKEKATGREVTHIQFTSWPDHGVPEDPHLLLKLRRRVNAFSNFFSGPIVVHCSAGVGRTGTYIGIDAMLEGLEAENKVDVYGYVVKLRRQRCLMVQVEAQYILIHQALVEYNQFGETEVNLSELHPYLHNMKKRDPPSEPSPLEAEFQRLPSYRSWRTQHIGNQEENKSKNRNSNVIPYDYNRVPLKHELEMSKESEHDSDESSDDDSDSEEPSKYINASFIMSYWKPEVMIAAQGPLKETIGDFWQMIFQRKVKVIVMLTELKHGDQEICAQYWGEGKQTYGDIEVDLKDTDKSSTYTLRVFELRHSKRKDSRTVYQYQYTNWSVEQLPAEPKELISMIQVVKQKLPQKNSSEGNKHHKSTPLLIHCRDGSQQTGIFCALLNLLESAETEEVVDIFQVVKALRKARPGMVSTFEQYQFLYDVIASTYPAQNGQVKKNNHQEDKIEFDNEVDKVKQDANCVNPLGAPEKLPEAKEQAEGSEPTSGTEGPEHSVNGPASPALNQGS
Briefly: In vitro inhibitory activity against CD45 protein-tyrosine phosphatase.

Data set [2] concerns the target T2, Tyrosine-protein phosphatase non-receptor type 1 (Homo sapiens, UniProt P18031).
T2 sequence (P18031 whole entry): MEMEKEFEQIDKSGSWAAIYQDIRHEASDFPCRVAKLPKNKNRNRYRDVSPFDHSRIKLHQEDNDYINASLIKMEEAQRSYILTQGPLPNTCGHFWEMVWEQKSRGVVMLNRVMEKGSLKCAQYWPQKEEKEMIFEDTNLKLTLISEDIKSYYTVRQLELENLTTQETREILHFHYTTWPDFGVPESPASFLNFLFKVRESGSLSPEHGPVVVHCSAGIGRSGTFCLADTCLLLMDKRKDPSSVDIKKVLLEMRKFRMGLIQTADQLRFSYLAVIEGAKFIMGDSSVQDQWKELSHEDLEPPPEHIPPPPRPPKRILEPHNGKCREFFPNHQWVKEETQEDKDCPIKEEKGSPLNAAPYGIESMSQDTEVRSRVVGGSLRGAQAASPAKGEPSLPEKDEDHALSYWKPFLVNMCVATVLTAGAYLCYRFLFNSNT
Briefly: In vitro inhibitory activity against protein tyrosine phosphatase 1B (PTP1B) was determined in fluorescein diphosphate (FDP) assay.

Data set [3] can be described thus: In vitro inhibitory activity against Protein tyrosine phosphatase 1B (PTP1B) over-expressed in intact Sf9 cell assay; NA denotes not active.
Data set [4] concerns the target T2, Tyrosine-protein phosphatase non-receptor type 1. Briefly: In vitro inhibitory activity against Protein tyrosine phosphatase 1B (PTP1B) over-expressed in intact Sf9 cell assay.
The nature of data set [5]: Oral bioavailability in rat. Conditions: in vivo. The data set is classed as ADME, organism-based.
Data set [6] is described as follows: Maximal concentration in rat was determined. The conditions noted are these: in vivo. The data set is classed as ADME, organism-based.
Data set [7] can be described thus: Half life in ob/ob mice. The data set is classed as ADME, organism-based. Conditions: mouse, in vivo.

As a reminder, the IC50 is the concentration that gives 50% inhibition. Turning to `O=C(c1ccccc1)C(Cc1ccc(C(F)(F)P(=O)(O)O)c(-c2ccccc2)c1)c1ccccc1` (configuration not stated), the 50% inhibitory concentration (IC50) in data set [1] was above 50 µM; in data set [2], 16 µM; in data set [3], “Not Active”.
`CC(=O)NS(=O)(=O)c1ccc(CC(Cc2ccc(C(F)(F)P(=O)(O)O)cc2)(C(=O)OCc2ccccc2)C(=O)OCc2ccccc2)cc1`: the values for the IC50 in data set [1], in data set [2] and in data set [4] were 25 µM, 0.09 µM and 1.7 µM, respectively.
The matching figures for `O=C(OCc1ccccc1)C(Cc1ccc(C(F)(F)C(=O)O)cc1)(Cc1ccc(C(F)(F)P(=O)(O)O)cc1)C(=O)OCc1ccccc1`: above 50 µM, 0.04 µM and 1.9 µM.
By bioavailability is commonly meant dose-corrected exposure relative to a reference, in per cent. In general, Cmax refers to the highest concentration seen after dosing. As for `O=C(c1ccccc1)C(Cc1ccc(C(F)(F)P(=O)(O)O)c(Br)c1)c1ccccc1` (configuration not stated), the bioavailability in data set [5] came out at 13%. Moreover, the results for the IC50 in data set [1] and in data set [4] were above 50 µM and 1.22 µM, respectively. Besides, in data set [6], the Cmax came out at 35 µM.
Turning to `O=C(OCc1ccccc1)C(Cc1ccc(C(F)(F)P(=O)(O)O)cc1)(Cc1ccc(C(F)(F)P(=O)(O)O)cc1)C(=O)OCc1ccccc1`, the IC50 in data set [1] amounted to 19 µM; in data set [2], 0.06 µM; in data set [4], 0.54 µM.
Take `COC(=O)C(Cc1ccc(C(F)(F)P(=O)(O)O)cc1)(Cc1ccc(C(F)(F)P(=O)(O)O)cc1)C(=O)O`: the IC50 is above 50 µM in data set [1], 0.39 µM in data set [2] and 3.8 µM in data set [4].
The matching figures for `O=P(O)(O)C(F)(F)c1ccc(CC(Cc2ccc(C(F)(F)P(=O)(O)O)cc2)(OCc2ccccc2)OCc2ccccc2)cc1`: above 50 µM, 0.16 µM and 1.3 µM.
Broadly, the half-life is the time needed for the level to fall by half in the phase considered. A low value points to rapid decline. As to `COC(=O)C(Cc1ccc(C(F)(F)P(=O)(O)O)cc1)(Cc1ccc(C(F)(F)P(=O)(O)O)cc1)C(=O)OCc1ccccc1`, the IC50 in data set [1] is above 50 µM; in data set [2] it was 0.19 µM; in data set [4] it was 1 µM. The compound further had a half-life in data set [7] below 30 min.
Consider `O=C(c1ccccc1)C(Cc1ccc(C(F)(F)P(=O)(O)O)cc1)(Cc1ccc(C(F)(F)P(=O)(O)O)cc1)c1ccccc1`, for which the IC50 is above 50 µM in data set [1]; 0.06 µM and 0.19 µM in data set [2]; 0.58 µM and 1.5 µM in data set [4].
Consider `O=C(c1ccccc1)C(Cc1ccc(C(F)(F)P(=O)(O)O)cc1)c1ccccc1` (configuration not stated), for which the half-inhibitory concentration (IC50) in data set [1] is above 50 µM; in data set [2] it was 2 µM; in data set [4], 16 µM.
In the case of `O=C(O)c1ccc(CC(Cc2ccc(C(F)(F)P(=O)(O)O)cc2)(C(=O)c2ccccc2)c2ccccc2)cc1` (configuration not stated), the half-maximal inhibitory concentration (IC50) is above 50 µM in data set [1], 0.8 µM in data set [2] and 6.63 µM in data set [4].
The matching figures for `O=C(c1ccccc1)C(Cc1ccc(C(F)(F)P(=O)(O)O)c(Cl)c1)c1ccccc1` (configuration not stated): above 50 µM, 0.36 µM and 2.4 µM.
Taken in the same sequence, the figures for `CC(C)OC(=O)C(Cc1ccc(C(F)(F)P(=O)(O)O)cc1)(Cc1ccc(C(F)(F)P(=O)(O)O)cc1)C(=O)OC(C)C` were above 50 µM, 0.11 µM and 1.65 µM.
Taken in the same sequence, the figures for `CS(=O)(=O)c1ccc(CC(Cc2ccc(C(F)(F)P(=O)(O)O)cc2)(C(=O)OCc2ccccc2)C(=O)OCc2ccccc2)cc1` were above 50 µM, 0.94 µM and 7.2 µM.
Regarding `O=C(c1ccccc1)C(C/C=C/c1ccccc1)(Cc1ccc(C(F)(F)P(=O)(O)O)cc1)c1ccccc1` (configuration not stated), the IC50 came to 5.5 µM in data set [1], 0.19 µM in data set [2] and 2 µM in data set [4].
